# Measured values reported in US20260200920A1, “SUBSTITUTED AMINOPYRIDINE COMPOUNDS FOR USE AS AKT1 INHIBITORS” (Atavistik Bio, Inc., priority 2023, published 2026).
# Legend:
# [1] = biological target: T1, human recombinant kinase full-length wildtype AKT1 (Homo sapiens, UniProt P31749); experiment: AKT1 kinase assay (wildtype, TR-FRET, Lance); format: biochemical; conditions: 0.6 nM wildtype AKT1, 50 nM Ulight-CREBtide, either 50 μM ATP or 2 mM ATP, 60 min at RT
# T1 construct: Purified human recombinant kinase full-length wildtype AKT1 was expressed in insect cells; made in house; host or cells: insect cells
# In short: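 Insect-cell-expressed full-length human AKT1, PDPK1-activated (0.6 nM), preincubated with compound 15 min at RT, then reacted 60 min at RT with 50 nM ULight-CREBtide and 50 μM or 2 mM ATP (pH 7.5, 1% DMSO). Phospho-CREBtide read by Eu-anti-phospho-Ser133 TR-FRET (665/620 ratio); IC50 from 10-point 4-parameter fit.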
# [2] = biological target: T2, human recombinant kinase full-length AKT1 E17K (Homo sapiens, UniProt P31749, E17K); experiment: AKT1 E17K kinase assay (TR-FRET, Lance); format: biochemical; conditions: 0.6 nM AKT1 E17K, 50 nM Ulight-CREBtide, either 50 μM ATP or 2 mM ATP, 60 min at RT
# T2 construct: Purified human recombinant kinase full-length AKT1 E17K was expressed in insect cells; made in house; host or cells: insect cells
# In short: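 Full-length AKT1 E17K from insect cells, PDPK1-activated, at 0.6 nM with 50 nM Ulight-CREBtide and 50 μM or 2 mM ATP, pH 7.5, 1% DMSO. Enzyme and compound preincubated 15 min, reaction run 60 min at RT; Eu-anti-phospho-CREB (Ser133) TR-FRET 665/620 ratio, 10-point curve, IC50 by 4-parameter fit.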
# T2 sequence (P31749 whole entry E17K): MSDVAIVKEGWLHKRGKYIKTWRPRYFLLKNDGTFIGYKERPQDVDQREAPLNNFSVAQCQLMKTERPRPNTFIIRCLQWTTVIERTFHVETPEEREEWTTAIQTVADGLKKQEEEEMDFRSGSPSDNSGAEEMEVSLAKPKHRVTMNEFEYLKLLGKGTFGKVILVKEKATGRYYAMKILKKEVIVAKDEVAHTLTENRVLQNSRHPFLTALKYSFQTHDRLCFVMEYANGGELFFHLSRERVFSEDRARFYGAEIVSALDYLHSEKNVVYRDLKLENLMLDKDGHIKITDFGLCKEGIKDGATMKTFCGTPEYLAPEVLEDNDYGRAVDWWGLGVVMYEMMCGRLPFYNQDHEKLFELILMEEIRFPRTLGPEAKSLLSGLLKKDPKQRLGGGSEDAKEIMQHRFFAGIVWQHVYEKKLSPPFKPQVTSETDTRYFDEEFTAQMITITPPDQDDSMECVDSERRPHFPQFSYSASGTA
# T1 sequence (P31749 whole entry): as the sequence (P31749 whole entry E17K) above, with K17E counted along it
Structure (SMILES),IC50 [1],IC50 [2]
CC(c1ccc(-n2c(-c3cccnc3N)nc3ccc(-c4ccccc4)nc32)cc1)N(C)[C@H]1CC[C@H](C(=O)O)CC1 (stereo partly shown) [Compound I-176],< 20 µM,0.5 to 2 µM
CC(c1ccc(-n2c(-c3cccnc3N)nc3ccc(-c4ccccc4)nc32)cc1)N(C)[C@H]1CC[C@@H](C(=O)O)CC1 (stereo partly shown) [Compound I-177],< 20 µM,0.5 to 2 µM
Cc1cc(CN(C)[C@H]2CC[C@H](C(=O)O)CC2)ccc1-n1c(-c2cccnc2N)nc2ccc(-c3ccccc3)nc21 [Compound I-178],< 20 µM,≥ 2 µM
Cc1cc(CN(C)[C@H]2CC[C@@H](C(=O)O)CC2)ccc1-n1c(-c2cccnc2N)nc2ccc(-c3ccccc3)nc21 [Compound I-179],< 20 µM,0.5 to 2 µM
Cc1cc(CN2CCC(C(C)(C)C(=O)O)C2)ccc1-n1c(-c2cccnc2N)nc2ccc(-c3ccccc3)nc21 (stereo not shown) [Compound I-180],< 20 µM,≥ 2 µM
NC(=O)N1CCC(CCc2ccc(-n3c(-c4cccnc4N)nc4ccc(-c5ccccc5)nc43)cc2F)CC1 [Compound I-181],< 20 µM,0.5 to 2 µM
Cc1nc(NC(=O)N2CCC(C(=O)O)CC2)ccc1-n1c(-c2cccnc2N)nc2ccc(-c3ccccc3)nc21 [Compound I-182],< 20 µM,< 0.5 µM
Cc1nc(CN(C)[C@H]2CC[C@H](C(=O)O)CC2)ccc1-n1c(-c2cccnc2N)nc2ccc(-c3ccccc3)nc21 [Compound I-183],< 20 µM,≥ 2 µM
Cc1nc(CN(C)[C@H]2CC[C@@H](C(=O)O)CC2)ccc1-n1c(-c2cccnc2N)nc2ccc(-c3ccccc3)nc21 [Compound I-184],< 20 µM,0.5 to 2 µM
CC(C)(C(=O)O)C1CCN(Cc2ccc(-n3c(-c4cccnc4N)nc4ccc(-c5ccccc5)nc43)c(F)c2)C1 (stereo not shown) [Compound I-185],< 20 µM,0.5 to 2 µM
"CNC(=O)[C@H]1CC[C@H](N(C)Cc2ccc(-n3c(-c4cccnc4N)nc4ccc(-c5ccccc5)nc43)cc2)CC1 [Compound I-186, trans-4-((4-(2-(2-aminopyridin-3-yl)-5-phenyl-3H-imidazo[4,5-b]pyridin-3-yl)benzyl)(methyl)amino)-N-methylcyclohexane-1-carboxamide]",< 20 µM,≥ 2 µM
"CN(Cc1ccc(-n2c(-c3cccnc3N)nc3ccc(-c4ccccc4)nc32)cc1)[C@H]1CC[C@H](C(N)=O)CC1 [Compound I-187, trans-4-((4-(2-(2-aminopyridin-3-yl)-5-phenyl-3H-imidazo[4,5-b]pyridin-3-yl)benzyl)(methyl)amino)cyclohexane-1-carboxamide]",< 20 µM,≥ 2 µM
Nc1ncccc1-c1nc2ccc(-c3ccccc3)nc2n1-c1ccc(C2CCN(C[C@H]3CC[C@H](C(=O)O)CC3)CC2)cc1 [Compound I-190],< 20 µM,0.5 to 2 µM
CC1(C)CC(CN2CCC(c3ccc(-n4c(-c5cccnc5N)nc5ccc(-c6ccccc6)nc54)cc3)CC2)CCC1C(=O)O (stereo not shown) [Compound I-193],< 20 µM,≥ 2 µM
CC1(C)CC(C(=O)O)CCC1CN1CCC(c2ccc(-n3c(-c4cccnc4N)nc4ccc(-c5ccccc5)nc43)cc2)CC1 (stereo not shown) [Compound I-194],< 20 µM,0.5 to 2 µM
Nc1ncccc1-c1nc2ccc(-c3ccccc3)nc2n1-c1ccc(C2CCN(CC34CCC(C(=O)O)(CC3)CC4)CC2)cc1 [Compound I-195],< 20 µM,0.5 to 2 µM
CC1(C)C[C@H](CN2CCC(c3ccc(-n4c(-c5cccnc5N)nc5ccc(-c6ccccc6)nc54)cc3)CC2)CC(C)(C)[C@H]1C(=O)O [Compound I-196],< 20 µM,≥ 2 µM
CC1(C)C[C@H](CN2CCC(c3ccc(-n4c(-c5cccnc5N)nc5ccc(-c6ccccc6)nc54)cc3)CC2)CC(C)(C)[C@@H]1C(=O)O [Compound I-197],< 20 µM,≥ 2 µM
Nc1ncccc1-c1nc2ccc(-c3ccccc3)nc2n1-c1ccc(C2CCN(C(=O)[C@H]3CC[C@H](C(=O)O)CC3)CC2)cc1 [Compound I-198],< 20 µM,< 0.5 µM
Nc1ncccc1-c1nc2ccc(-c3ccccc3)nc2n1-c1ccc(C2CCN(C(=O)[C@H]3CC[C@@H](C(=O)O)CC3)CC2)cc1 [Compound I-199],< 20 µM,< 0.5 µM
Cc1cc(C2CN(CC34CCC(C(=O)O)(CC3)CC4)C2)ccc1-n1c(-c2cccnc2N)nc2ccc(-c3ccccc3F)nc21 [Compound I-200],< 20 µM,0.5 to 2 µM
Cc1cc(C2CN(CC3CC4CC(C(=O)O)CC4C3)C2)ccc1-n1c(-c2cccnc2N)nc2ccc(-c3ccccc3F)nc21 (stereo not shown) [Compound I-201],< 20 µM,< 0.5 µM
Nc1ncccc1-c1nc2ccc(-c3ccccc3F)nc2n1-c1ccc(C2CN(CC3CC4CC(C(=O)O)CC4C3)C2)cc1 (stereo not shown) [Compound I-202],< 20 µM,< 0.5 µM
